Assay results taken from US10940188B2, “Compounds and methods for treatment and prevention of Flavivirus infection” (priority 2016, dated 2021).

Test system: forebrain-specific hNPCs infected by FSS13025
Experiment: Immunostaining of ZIKV-infected forebrain-specific hNPCs (monolayer) for cleaved caspase-3 and ZIKVE
Assay type: cell-based, human
From the text: FIGS. 1A-1, 1A-2, 1A-3, 1B-1, 1B-2, 1C-1, and 1C-2. Emricasan suppresses cell death of ZIKV-infected human astrocytes and hNPCs in 2D monolayer cultures and 3D brain organoids. Emricasan (FIG. 1A-1) inhibits caspase-3 activity and improves cell viability in human astrocytes infected with three different strains of ZIKV in a concentration dependent manner. Value represent mean±s.d. (n=3). The curves (FIGS. 1A-2 and 1A-3) represent best fit. (FIG. 1B) Sample images of immunostaining (FIG. 1B-1) of forebrain-specific hNPCs for ZIKV envelop protein (ZIKVE; green) and cleaved-caspase 3 (Cas3; red) and DAPI (gray) 72 hours after ZIKV FSS-13025 infection (MOI=0.04-0.08; Scale bar: 20 μm), and quantification (FIG. 1B-2). Values represent mean±s.e.m. (n=3; **P<0.01; Student's t-test). Sample images (FIG. 1C-1) of immunostaining of day 28 human forebrain-specific organoids for ZIKVE (green) and Cas3 (red) and DAPI (gray) 10 days after ZIKV FSS-13025 infection (Scale bar: 100 μm), and quantification (FIG. 1C-2). Values represent mean±s.e.m. (n=6; ***P<0.001; Student's t-test).
Cells were fixed with 4% paraformaldehyde (Sigma) for 15 min at room temperature. Samples were permeabilized and blocked with 0.25% Triton X-100 (Sigma) and 10% donkey or goat serum in PBS for 20 min as previously described (Chiang et al., 2011; [41]; Yoon et al., 2014). […]

## C[C@H](NC(=O)C(=O)Nc1ccccc1C(C)(C)C)C(=O)N[C@@H](CC(=O)O)C(=O)COc1c(F)c(F)cc(F)c1F [Emricasan]
FSS13025 infection, 72 hours
  number of cleaved caspase-3-expressing hNPCs, monolayer: reduced the number of active (cleaved) caspase-3-expressing forebrain-specific hNPCs
After Emricasan treatment
  suppression of ZIKV replication (ZIKV antigen in 2D and 3D cultures): does not suppress ZIKV replication
